Experimental data taken from patent US20230115350A1 (Cedilla Therapeutics, Inc., priority 2021, published 2023).

These molecules were tested against TEAD1 protein (YAP Binding Domain) (Homo sapiens, UniProt P28347) (assay: TEAD1 lipid pocket compound displacement assay (TR-FRET, Cy5-probe)). Details: 60 minutes incubation at room temperature; TR-FRET 665 nm/620 nm; read-out: CDA IC50.
TEAD1 protein (YAP Binding Domain), sequence (P28347 209-426 limits assumed): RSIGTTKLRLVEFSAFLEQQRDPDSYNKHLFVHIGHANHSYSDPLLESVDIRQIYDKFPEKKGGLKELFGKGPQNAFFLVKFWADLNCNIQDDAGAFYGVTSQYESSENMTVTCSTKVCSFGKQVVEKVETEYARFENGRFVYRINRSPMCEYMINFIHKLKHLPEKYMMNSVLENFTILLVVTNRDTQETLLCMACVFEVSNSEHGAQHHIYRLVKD
Procedure: Compound Displacement Assay.
A TEAD1 lipid pocket displacement assay was carried out according to the following protocol. Purified His-tagged TEAD1 protein (YAP Binding Domain) was pre-mixed with a Cy5-probe (Cy5-conjugated to a small molecule that binds in the TEAD1 lipid pocket) and Terbium-labeled anti-His antibody (Cisbio Cat 61HI2TLB). The binding of the Cy5-probe to anti-His-Tb/His-tag TEAD1 complex yielded a TR-FRET signal. […] After 60 minutes incubation at room temperature of compounds with the His-TEAD1/anti-His-Tb/Cy5-probe complex, the plate was read on a plate reader (BMG ClarioStar Cat 430-1300) using TR-FRET mode with wavelengths of 665 nm/620 nm. The potency of compounds as TEAD1 lipid pocket binders was determined by IC50 value generated using a non-linear 4 parameter curve fit.
C=CC(=O)Nc1ccc(OCc2cccc(F)c2)c(C2CC2)c1 [Compound 2, N-(3-cyclopropyl-4-((3-fluorobenzyl)oxy)phenyl)acrylamide] gave an IC50 of 250 to 500 nM. For C=CC(=O)Nc1ccc(OCc2cccc(F)c2)cc1C1CC1 [Compound 4, N-(2-cyclopropyl-4-((3-fluorobenzyl)oxy)phenyl)acrylamide], the IC50 was 250 to 500 nM. For C=CC(=O)Nc1ccc2c(c1)CCC(c1cccc(F)c1)O2 (stereo not shown) [Compound 5, N-(2-(3-fluorophenyl)chroman-6-yl)acrylamide], the IC50 was over 2000 nM. In the case of C=CC(=O)Nc1ccc(OCc2cccc(F)c2)c(OC)c1 [Compound 6, N-(4-((3-fluorobenzyl)oxy)-3-methoxyphenyl)acrylamide], the IC50 is reported as 250 to 500 nM. C=CC(=O)Nc1ccc(OCc2cccc(F)c2)cc1OC [Compound 7, N-(4-((3-fluorobenzyl)oxy)-2-methoxyphenyl)acrylamide] gave an IC50 of at most 250 nM. In the case of C=CC(=O)Nc1ccc2c(c1)OCC(c1cccc(F)c1)O2 (stereo not shown) [Compound 8, N-(2-(3-fluorophenyl)-2,3-dihydrobenzo[b][1,4]dioxin-6-yl)acrylamide], the IC50 is reported as 250 to 500 nM. In the case of C=CC(=O)Nc1ccc2c(c1)NCC(c1cccc(F)c1)O2 (stereo not shown) [Compound 10, N-(2-(3-fluorophenyl)-3,4-dihydro-2H-benzo[b][1,4]oxazin-6-yl)acrylamide], the IC50 is reported as over 2000 nM. C=CC(=O)Nc1ccc(OCc2cccc(F)c2)cc1CC(N)=O [Compound 11, N-(2-(2-amino-2-oxoethyl)-4-((3-fluorobenzyl)oxy)phenyl)acrylamide] showed an IC50 of over 2000 nM. C=CC(=O)Nc1ccc2c(c1)N(C)CC(c1cccc(F)c1)O2 (stereo not shown) [Compound 12, N-(2-(3-fluorophenyl)-4-methyl-3,4-dihydro-2H-benzo[b][1,4]oxazin-6-yl)acrylamide] gave an IC50 of over 2000 nM. In the case of C=CC(=O)Nc1ccc(OCc2cccc(F)c2)cc1Cc1ccncc1 [Compound 13, N-(4-((3-fluorobenzyl)oxy)-2-(pyridin-4-ylmethyl)phenyl)acrylamide], the IC50 is reported as over 2000 nM. Molecule C=CC(=O)Nc1ccc(OCc2cccc(F)c2)c2c1CCCO2 [Compound 14, N-(8-((3-fluorobenzyl)oxy)chroman-5-yl)acrylamide] has an IC50 of over 2000 nM. C=CC(=O)Nc1ccc(OCc2cccc(F)c2)c2c1CCCC2 [Compound 15, N-(4-((3-fluorobenzyl)oxy)-5,6,7,8-tetrahydronaphthalen-1-yl)acrylamide] showed an IC50 of 250 to 500 nM. With C=CC(=O)Nc1ccc(OCc2cccc(F)c2)cc1CC1CC1 [Compound 16, N-(2-(cyclopropylmethyl)-4-((3-fluorobenzyl)oxy)phenyl)acrylamide] the IC50 was over 2000 nM. With C=CC(=O)Nc1ccc(N(Cc2cccc(F)c2)CC2CC2)c(F)c1 [Compound 17, N-(4-((cyclopropylmethyl)(3-fluorobenzyl)amino)-3-fluorophenyl)acrylamide] the IC50 was at most 250 nM. C=CC(=O)Nc1ccc(N(Cc2ccncc2)Cc2cccc(F)c2)c(F)c1 [Compound 18, N-(3-fluoro-4-((3-fluorobenzyl)(pyridin-4-ylmethyl)amino)phenyl)acrylamide] showed an IC50 of over 2000 nM. For C#Cc1cccc(COc2ccc(NC(=O)C=C)cc2F)c1 [Compound 25, N-(4-((3-ethynylbenzyl)oxy)-3-fluorophenyl)acrylamide], the IC50 was 250 to 500 nM. Fc1cc(-c2nnn[nH]2)ccc1OCC1CCC(F)(F)CC1 [Compound 29, 5-(4-((4,4-difluorocyclohexyl)methoxy)-3-fluorophenyl)-1H-tetrazole] gave an IC50 of 500 to 2000 nM. C=CC(=O)Nc1ccc(OC(C)C2CCC(F)(F)CC2)c(F)c1 (stereo not shown) [Compound 30, N-(4-(1-(4,4-difluorocyclohexyl)ethoxy)-3-fluorophenyl)acrylamide] gave an IC50 of 250 to 500 nM. For C=CC(=O)Nc1ccc(NC(=O)C2CCC(F)(F)CC2)c(F)c1 [Compound 32, N-(4-acrylamido-2-fluorophenyl)-4,4-difluorocyclohexanecarboxamide], the IC50 was at most 250 nM. CS(=O)(=O)Nc1ccc(OCC2CCC(F)(F)CC2)c(F)c1 [Compound 33, N-(4-((4,4-difluorocyclohexyl)methoxy)-3-fluorophenyl)methane sulfonamide] gave an IC50 of 500 to 2000 nM. C=CS(=O)(=O)Nc1ccc(OCC2CCC(F)(F)CC2)c(F)c1 [Compound 34, N-(4-((4,4-difluorocyclohexyl)methoxy)-3-fluorophenyl) ethene sulfonamide] gave an IC50 of at most 250 nM. O=C(O)c1ccc(OCC2CCC(F)(F)CC2)c(F)c1 [Compound 35, 4-((4,4-difluorocyclohexyl)methoxy)-3-fluorobenzoic acid] showed an IC50 of 250 to 500 nM. O=C(O)c1ccc(F)c(OCC2CCC(F)(F)CC2)c1 [Compound 36, 3-((4,4-difluorocyclohexyl)methoxy)-4-fluorobenzoic acid] showed an IC50 of 250 to 500 nM. With O=C(NS(=O)(=O)C1CC1)c1ccc(OCC2CCC(F)(F)CC2)c(F)c1 [Compound 37, N-(cyclopropylsulfonyl)-4-((4,4-difluorocyclohexyl)methoxy)-3-fluorobenzamide] the IC50 was 500 to 2000 nM. For C=CC(=O)Nc1ccc(OCc2cccc(F)c2)cc1 [Compound 44, N-(4-((3-fluorobenzyl)oxy)phenyl)acrylamide], the IC50 was over 2000 nM. With C=CC(=O)Nc1ccc(OCc2cccc(F)c2)c(Cl)c1 [Compound 46, N-(3-chloro-4-((3-fluorobenzyl)oxy)phenyl)acrylamide] the IC50 was at most 250 nM. C=CC(=O)Nc1ccc(OCc2cccc(F)c2)cc1C [Compound 47, N-(4-((3-fluorobenzyl)oxy)-2-methylphenyl)acrylamide] showed an IC50 of 500 to 2000 nM. For C=CC(=O)Nc1ccc(OCC2CCC(F)(F)CC2)c(C)c1 [Compound 48, N-(4-((4,4-difluorocyclohexyl)methoxy)-3-methylphenyl)acrylamide], the IC50 was at most 250 nM. For C=CC(=O)Nc1ccc(OCc2ccccc2)c(F)c1 [Compound 52, N-(4-(benzyloxy)-3-fluorophenyl)acrylamide], the IC50 was 250 to 500 nM. Work on C=CC(=O)Nc1ccc(OCc2cccnc2)c(F)c1 [Compound 56, N-(3-fluoro-4-(pyridin-3-ylmethoxy)phenyl)acrylamide] yielded an IC50 of over 2000 nM. C=CC(=O)Nc1ccc(OCc2cnccc2Cl)c(F)c1 [Compound 57, N-(4-((4-chloropyridin-3-yl)methoxy)-3-fluorophenyl)acrylamide] was tested, and the IC50 was over 2000 nM. Work on C=CC(=O)Nc1ccc(OCc2ccsc2Cl)c(F)c1 [Compound 61, N-(4-((2-chlorothiophen-3-yl)methoxy)-3-fluorophenyl)acrylamide] yielded an IC50 of 500 to 2000 nM. C=CC(=O)Nc1ccc(OCc2ccc(C(=O)OC)s2)c(F)c1 [Compound 62, methyl 5-((4-acrylamido-2-fluorophenoxy)methyl)thiophene-2-carboxylate] was tested, and the IC50 was 500 to 2000 nM. Work on C=CC(=O)Nc1ccc(OCc2cnc(C)s2)c(F)c1 [Compound 64, N-(3-fluoro-4-((2-methylthiazol-5-yl)methoxy)phenyl)acrylamide] yielded an IC50 of over 2000 nM. C=CC(=O)Nc1ccc(OCc2oc(=O)oc2C)c(F)c1 [Compound 65, N-(3-fluoro-4-((5-methyl-2-oxo-1,3-dioxol-4-yl)methoxy)phenyl)acrylamide] showed an IC50 of over 2000 nM. C=CC(=O)Nc1ccc(OCc2ccncc2)c(F)c1 [Compound 66] gave an IC50 of over 2000 nM. With C=CC(=O)Nc1ccc(OCc2ccnc(C#N)c2)c(F)c1 [Compound 67, N-(4-((2-cyanopyridin-4-yl)methoxy)-3-fluorophenyl)acrylamide] the IC50 was over 2000 nM. Work on C=CC(=O)Nc1ccc(OCc2ccc(Br)nc2)c(F)c1 [Compound 68, N-(4-((6-bromopyridin-3-yl)methoxy)-3-fluorophenyl)acrylamide] yielded an IC50 of 500 to 2000 nM. With C=CC(=O)Nc1ccc(OCc2ccc(C)nc2)c(F)c1 [Compound 69, N-(3-fluoro-4-((6-methylpyridin-3-yl)methoxy)phenyl)acrylamide] the IC50 was over 2000 nM. With C=CC(=O)Nc1ccc(OCc2ccc(C(=O)OC)nc2)c(F)c1 [Compound 70, methyl 5-((4-acrylamido-2-fluorophenoxy)methyl)picolinate] the IC50 was over 2000 nM. For C=CC(=O)Nc1ccc(OCc2cccnc2C)c(F)c1 [Compound 75, N-(3-fluoro-4-((2-methylpyridin-3-yl)methoxy)phenyl)acrylamide], the IC50 was over 2000 nM. Work on C=CC(=O)Nc1ccc(OCc2ccc(C#N)cc2Cl)c(F)c1 [Compound 77, N-(4-((2-chloro-4-cyanobenzyl)oxy)-3-fluorophenyl)acrylamide] yielded an IC50 of over 2000 nM. For C=CC(=O)Nc1ccc(OCc2cc(Cl)ccc2Cl)c(F)c1 [Compound 79, N-(4-((2,5-dichlorobenzyl)oxy)-3-fluorophenyl)acrylamide], the IC50 was 500 to 2000 nM. Molecule C=CC(=O)Nc1ccc(OCc2ccc(C(F)(F)F)cc2Cl)c(F)c1 [Compound 81, N-(4-((2-chloro-4-(trifluoromethyl)benzyl)oxy)-3-fluorophenyl)acrylamide] has an IC50 of over 2000 nM. Work on C=CC(=O)Nc1ccc(OCc2c(F)cccc2Cl)c(F)c1 [Compound 85, N-(4-((2-chloro-6-fluorobenzyl)oxy)-3-fluorophenyl)acrylamide] yielded an IC50 of over 2000 nM. C=CC(=O)Nc1ccc(OCc2c(Cl)cccc2Cl)c(F)c1 [Compound 86, N-(4-((2,6-dichlorobenzyl)oxy)-3-fluorophenyl)acrylamide] was tested, and the IC50 was over 2000 nM. C=CC(=O)Nc1ccc(OCc2cc(C(=O)OC)ccc2Cl)c(F)c1 [Compound 87, methyl 3-((4-acrylamido-2-fluorophenoxy)methyl)-4-chlorobenzoate] showed an IC50 of 500 to 2000 nM. For C=CC(=O)Nc1ccc(OCc2cc(OC)ccc2Cl)c(F)c1 [Compound 88, N-(4-((2-chloro-5-methoxybenzyl)oxy)-3-fluorophenyl)acrylamide], the IC50 was 250 to 500 nM. C=CC(=O)Nc1ccc(OCc2cccc(Cl)c2)c(F)c1 [Compound 90, N-(4-((3-chlorobenzyl)oxy)-3-fluorophenyl)acrylamide] was tested, and the IC50 was at most 250 nM.
